Data taken from US20110295343A1, “NEAR-INFRARED ELECTROMAGNETIC MODIFICATION OF CELLULAR STEADY-STATE MEMBRANE POTENTIALS” (priority 2008, published 2011).
“And” between values parts separate entries of the source, which are not always exact repeats. Identical values can stand only once.

Experiments:
MRSA in the nares = test: Nasal colonization human study Part One, quantitative swab cultures, MRSA; assay type: in vivo, S. aureus; details: for MRSA Average: laser w/ drug arm, one line per patient
Method: (§1) This investigational protocol was an open-label study of subjects who are colonized with MRSA in the nares (nostril). The study was done in two parts.
(§2) In this human study, three arms were produced. […] This was done on day 1 and again on day three; and Arm #3: ⅓ of the subjects were treated with the laser and then a topical antibiotic three times a day for five days. Prior to enrollment in this study, prospective subjects met all of the following criteria: age≧18 years and ≦70 years of age; previous positive MRSA culture; negative urine pregnancy test or post-menopausal for one year; willing to comply with study requirements, including return visits and self-application of topical antibiotics; and willing to provide informed consent to participate. Prospective subjects were excluded from this study if any of the following criteria were met: pregnancy; patients who are severely immunocompromised (such as may occur in AIDS, renal transplant regimens, immunosuppressed states consequent to malignancy or agents used in rendering oncologic care, or who suffer from end stage renal disease); diabetic patients; allergy to antimicrobials being used in the study (group 3).
(§3) All participants underwent an initial quantitative assessment for nasal carriage of S. aureus, during their first visit. Each participant had the anterior nares (each nostril) sampled for culture with a circular movement (three rotations on each side) of a sterile wood applicator plain Rayon® tipped swab in each nostril and placed in a labled tube. 2 ml of room temp phosphate buffered saline was placed in the tube after the removal of the swab (to completely cover the swab in the tube). Each swab was then placed back in the tube and the tube was then vortexed for 15 seconds to disperse isolates of MRSA and/or MSSA into the PBS solution. Aliquots of PBS from the tube were plated in the following manner: 100 μl from each tube was lawn plated in triplicate (3×) on selective Chromogenic MRSA And MSSA agar. Plates were placed in incubator within 30 minutes of the plating procedure, and colonies were counted manually, and recorded 18 hrs after plating.
(§4) On day one of the study, all subjects underwent this exact procedure in arms 1 and 2 of the study two minutes before the laser procedure. They again were sampled in the same manner 2 minutes after the laser procedure. In the third arm of the study, they were swabbed two minutes before the procedure and the first antibiotic administration was completed after the laser therapy. The post/laser swab sample was taken for this arm 20 min later.
(§5) On day three of the study, all subjects from arms one two and three underwent the exact same procedures as day 1 of the study.
(§6) On day five all subjects from all arms underwent just one swabbing per nostril with the exact same sampling procedure one time.
(§7) Application of H202: 3% OTC hydrogen peroxide was applied to a cotton pledget for application to the subject prior to irradiation. This was inserted in the nose for 120 seconds and then removed. The subjects were then given doses of phototherapeutic near infrared radiation as described. Application of generic topical Antimicrobial: The subjects were first given doses of phototherapeutic near infrared radiation as described. […] The swab was inserted approximately 1 cm in to the anterior nares and rotated 360 degrees several times and removed. Patients were instructed to perform the exact application procedure 3 times a day for the remaining 5 days.
(§8) The NOVEON™ laser was used for two (2) six-minute treatments in each nostril on day (1) and day (3) of the study.
(§9) The laser was calibrated before the first treatment of the day. Intermittent temperature testing of the treatment site was performed on each subject using a noncontact infrared thermometer (Raytek Minitemp), 30-60 second intervals.

MSSA in the nares = test: Nasal colonization human study Part One, quantitative swab cultures, MSSA; assay type: in vivo, S. aureus; details: laser w/ drug arm, one line per patient
Method: as §1, §2, §3, §4, §5, §6, §7, §8, §9

MRSA = test: CFU counts of MRSA plated on agar with antibiotic after sub-lethal NIMELS laser (Examples IX-XII); assay type: cell-based, Staphylococcus aureus; details: for MRSA colony count, EXPERIMENTAL: sub-lethal NIMELS laser
Description: The following parameters illustrate the general bacterial methods according to the invention as applied to MRSA for the in vitro Experiments V and VIII-XII.
The null hypothesis is μ1−μ2=0 and μ1−μ3=0 where:
a) μ1 is sub-lethal dosimetry from the NIMEL laser system on MRSA as a control and;
The null hypothesis is μ1−μ2=0 and μ1−μ3=0 where: • a) μ1 is sub-lethal dosimetry from the NIMEL laser system on MRSA as a control and; • b)μ2 is the same sub-lethal dosimetry from the NIMEL laser system on MRSA with the addition of tetracycline at resistant MIC just below effectiveness level and; • c) μ3 is the same sub-lethal dosimetry from the NIMEL laser system on MRSA with the addition of rifampin at resistant MIC just below effectiveness level.
The null hypothesis is μ1−μ2=0 and μ1−μ3=0 where: a) μ1 is sub-lethal dosimetry from the NIMEL laser system on MRSA as a control and; b)μ2 is the same sub-lethal dosimetry from the NIMEL laser system on MRSA with the addition of methicillin at resistant MIC just below effectiveness level and; […]

[1] = Initial Analysis, Post-treatment swab, left nostril
[2] = Initial Analysis, Post-treatment swab, right nostril
[3] = Initial Analysis, Pre swab (baseline), left nostril, mean of triplicate plates
[4] = Initial Analysis, Pre swab (baseline), right nostril
[5] = Second Analysis, Post-treatment swab, left nostril
[6] = Second Analysis, Post-treatment swab, right nostril
[7] = Second Analysis, Pre swab, left nostril
[8] = Second Analysis, Pre swab, right nostril
[9] = Third Analysis, Swab, left nostril
[10] = Third Analysis, Swab, right nostril

OO [H2O2, hydrogen peroxide]
outcome of Laser plus H2O2 arm on nasal colonization (MRSA in the nares; humans, topical 3% H2O2 120 seconds, then laser, day 1 and day 3): some transient benefit in some of the patients, but no obvious long-term efficacy

OO [Peroxide]
MRSA Average (MRSA in the nares; [1]): 0 CFU (2×) and 22 CFU and 1 CFU | MRSA Average (MRSA in the nares; [2]): 0 CFU (2×) and 455 CFU and 2752 CFU | MRSA Average (MRSA in the nares; [3]): 0 CFU (2×) and 63 CFU and 4 CFU | MRSA Average (MRSA in the nares; [4]): 0 CFU (2×) and 30 CFU and 4032 CFU | MRSA Average (MRSA in the nares; [5]): 0 CFU (3×) and 12 CFU | MRSA Average (MRSA in the nares; [6]): 0 CFU (2×) and 114 CFU and 3347 CFU | MRSA Average (MRSA in the nares; [7]): 0 CFU (2×) and 180 CFU and 17 CFU | MRSA Average (MRSA in the nares; [8]): 0 CFU (2×) and 90 CFU and 3099 CFU | MRSA Average (MRSA in the nares; [9]): 0 CFU (3×) and 827 CFU | MRSA Average (MRSA in the nares; [10]): 0 CFU (2×) and 563 CFU and 3648 CFU | s. aureus Average (MSSA in the nares; [1]): 0 CFU (2×) and 20 CFU and 1 CFU | s. aureus Average (MSSA in the nares; [2]): 0 CFU and 506 CFU and 146 CFU and 3272 CFU | s. aureus Average (MSSA in the nares; [3]): 1 CFU and 53 CFU and 17 CFU and 124 CFU | s. aureus Average (MSSA in the nares; [4]): 0 CFU and 29 CFU and 285 CFU and 3996 CFU | s. aureus Average (MSSA in the nares; [5]): 0 CFU (3×) and 10 CFU | s. aureus Average (MSSA in the nares; [6]): 0 CFU and 126 CFU and 5 CFU and 3589 CFU | s. aureus Average (MSSA in the nares; [7]): 1 CFU and 206 CFU and 4 CFU and 12 CFU | s. aureus Average (MSSA in the nares; [8]): 1 CFU and 94 CFU and 257 CFU and 4373 CFU | s. aureus Average (MSSA in the nares; [9]): 1 CFU and 868 CFU and 28 CFU and 0 CFU | s. aureus Average (MSSA in the nares; [10]): 1 CFU and 586 CFU and 52 CFU and 3493 CFU

CO[C@H]1/C=C/O[C@@]2(C)Oc3c(C)c(O)c4c(O)c(c(/C=N/N5CCN(C)CC5)c(O)c4c3C2=O)NC(=O)/C(C)=C\C=C\[C@H](C)[C@H](O)[C@@H](C)[C@@H](O)[C@@H](C)[C@H](OC(C)=O)[C@@H]1C [Rifampin]
MRSA colony count, CONTROL (MRSA; no laser, agar with rifampin 90 ug/ml, samples E1, E2, E3, 5 replicates each): 183 and 210 (3×) and 166 and 228 and 188 and 274 and 180 and 240 and 288 and 280 and 290 and 300 | MRSA colony count, EXPERIMENTAL (MRSA; agar with rifampin 90 ug/ml, samples E1, E2, E3, 5 replicates each): 280 (2×) and 272 and 320 and 330 and 284 (2×) and 270 and 225 and 200 (2×) and 210 and 378

CN(C)[C@@H]1C(O)=C(C(N)=O)C(=O)[C@@]2(O)C(O)=C3C(=O)c4c(O)cccc4[C@@](C)(O)[C@H]3C[C@@H]12 [Tetracycline]
MRSA colony count, CONTROL (MRSA; no laser, agar with tetracyc. 4 ug/ml, samples E1, E2, E3, 5 replicates each): 240 and 256 and 268 and 310 (2×) and 255 and 280 and 283 and 263 and 260 and 368 and 380 and 375 and 390 | MRSA colony count, EXPERIMENTAL (MRSA; agar with tetracyc. 4 ug/ml, samples E1, E2, E3, 5 replicates each): 42 (2×) and 18 (2×) and 28 and 27 and 16 and 72 and 67 and 45 and 47 and 74 and 56 and 46 and 48

COc1cc(Cc2cnc(N)nc2N)cc(OC)c1OC [Trimethoprim]
MRSA colony count, CONTROL (no laser) (MRSA; no laser, agar with trimeth 2 ug/ml, replicates B-4 1 to 5): 213 and 198 and 240 and 220 and 145 | MRSA colony count, EXPERIMENTAL (MRSA; agar with trimeth 2 ug/ml, replicates B-4 1 to 5): 100 and 110 and 125 and 138 and 115
